Tests used:
Conditions in all cases: 72 h
Calu-3 [1] = experiment: cell viability relative to DMSO; higher = less toxic
HepG2 [2] = experiment: as above
Caco-2 [3] = experiment: as above
U2OS [4] = experiment: as above
Vero E6 [5] = experiment: as above
HepG2 [6] = experiment: relative viability EC50 (midpoint between 100% and the lowest measured viability); higher = less toxic
U2OS [7] = experiment: as above
Vero E6 [8] = experiment: as above
Calu-3 [9] = experiment: drug sensitivity score (DSS) for viability; higher = more toxic; extreme values may be limits of the assay
HepG2 [10] = experiment: as above
Caco-2 [11] = experiment: as above
U2OS [12] = experiment: as above
Vero E6 [13] = experiment: as above
Calu-3 [14] = experiment: relative viability EC50 (midpoint between 100% and the lowest measured viability); higher = less toxic
Caco-2 [15] = experiment: as above

Structure (SMILES)	cell viability (Calu-3 [1]; 1 nM) [%]	cell viability (Calu-3 [1]; 10 nM) [%]	cell viability (Calu-3 [1]; 100 nM) [%]	cell viability (Calu-3 [1]; 1000 nM) [%]	cell viability (Calu-3 [1]; 10000 nM) [%]	cell viability (HepG2 [2]; 1 nM) [%]	cell viability (HepG2 [2]; 10 nM) [%]	cell viability (HepG2 [2]; 100 nM) [%]	cell viability (HepG2 [2]; 1000 nM) [%]	cell viability (HepG2 [2]; 10000 nM) [%]	cell viability (Caco-2 [3]; 1 nM) [%]	cell viability (Caco-2 [3]; 10 nM) [%]	cell viability (Caco-2 [3]; 100 nM) [%]	cell viability (Caco-2 [3]; 1000 nM) [%]	cell viability (Caco-2 [3]; 10000 nM) [%]	cell viability (U2OS [4]; 1 nM) [%]	cell viability (U2OS [4]; 10 nM) [%]	cell viability (U2OS [4]; 100 nM) [%]	cell viability (U2OS [4]; 1000 nM) [%]	cell viability (U2OS [4]; 10000 nM) [%]	cell viability (Vero E6 [5]; 1 nM) [%]	cell viability (Vero E6 [5]; 10 nM) [%]	cell viability (Vero E6 [5]; 100 nM) [%]	cell viability (Vero E6 [5]; 1000 nM) [%]	cell viability (Vero E6 [5]; 10000 nM) [%]	relative viability EC50 (HepG2 [6]) [µM]	relative viability EC50 (U2OS [7]) [µM]	relative viability EC50 (Vero E6 [8]) [µM]	drug sensitivity score (Calu-3 [9])	drug sensitivity score (HepG2 [10])	drug sensitivity score (Caco-2 [11])	drug sensitivity score (U2OS [12])	drug sensitivity score (Vero E6 [13])	relative viability EC50 (Calu-3 [14]) [µM]	relative viability EC50 (Caco-2 [15]) [µM]
c1ccc(-c2oc3ncnc(NC[C@@H]4CCCO4)c3c2-c2ccccc2)cc1 [AIM-100]	106	92.2	96.6	97.7	74.7	83.4	98.6	99.8	97.4	95.6	115	92.6	96.6	104	71.3	103	102	105	101	95.5	90.2	98.6	96.6	87.2	95.9	> 10	> 10	> 10	1.3	0	1	0	0		
COCCOc1cnc2ccn([C@H](C)c3nnc4c(F)cc(-c5cnn(C)c5)cn34)c(=O)c2c1 [AMG-337]	101	89	98.4	114	95.2	100	102	99.2	91.5	93.5	104	103	92.9	101	97.2	93	99.1	102	98	100						> 10	> 10		0	0	0	0		> 10	> 10
C#CC[C@H](c1nc2cc(Cl)ccc2c(=O)n1Nc1ccccc1)N(CCCN)C(=O)c1cccc(Cl)c1F [ARQ-621]	105	101	104	86.7	78	93.7	100	94.5	62.2	26.6	101	96.6	93.6	81.7	73	103	98.9	101	93.4	42.3	102	100	96.2	101	54.9	0.929	2.23		2.1	8.5	3.1	4.2	2.3	> 10	
CNC(=O)CN1CCC(Oc2cc3c(Nc4cccc(Cl)c4F)ncnc3cc2OC)CC1 [AZD8931]	109	80.5	60.7	33.8	22.5	106	95.7	87.8	95.2	85.2	96.5	93.7	90.2	77.7	65.5	95.4	94.8	93.6	89.6	87.9	97.2	97.7	78.3	58.5	42.1	> 10	> 10	0.233	18.2	0.5	4.6	0.1	10.2	0.0843	
Cc1cc(-c2nc(-c3ccc(OC(F)(F)F)cc3)no2)nn1Cc1ccnc(N2CCN(C3CC3)CC2)c1 [BAY-87-2243]	98.5	94.4	92.9	87.7	92	93.1	50.4	20.8	17.8	18.7	99.4	99	73.7	74.7	71.1	97.3	95.3	81.5	73.5	66.6	95.8	98.8	94.3	91	85.1	0.0071		> 10	0.2	31.4	8	6.5	0.4	> 10	
O=C1c2ccccc2CCC1CNCCc1ccc(O)cc1 (stereo not given) [BE-2254]	106	93.3	95.7	101	96.2	114	96	96.7	103	39.1	104	100	99.5	104	98	95.8	97.3	100	99.3	95.5						3.45	> 10		0	3	0	0		> 10	> 10
COc1ccc2c(c1)c(CC(=O)N1CCOCC1)c(C)n2C(=O)c1ccc(Cl)cc1 [BML-190]	106	106	92.7	108	96.9	102	102	104	88	94.8	91.4	109	96.7	101	85.6	96.2	101	106	99.3	112						> 10	> 10		0	0.5	0.2	0		> 10	> 10
Cc1nc(C#Cc2ccnc(Cl)c2)c(C)n1-c1ccc(OC(F)(F)F)cc1 [CTEP]	99.2	101	93	96.5	92.3	100	88.6	100	91.5	85.1	93.9	107	86.9	84.6	55.8	94.6	98.2	95.5	100	58.2	102	100	91.8	102	94.5	> 10		> 10	0	0.2	4	2.1	0	> 10	
